From BindingDB's records for doi:10.1016/j.bmcl.2019.126886 (Tokyo University of Agriculture, 2020)

Assay: Inhibition of PKCbeta in rat RBL2H3 cells assessed as inhibition of mouse anti-DNP IgE-stimulated beta-hexosaminidase release preincubated for 15 mins followed by mouse anti-DNP IgE stimulation and measured after 3 hrs by 4-nitropheny1-2-acetamide-2-deoxy-beta-glucopyranoside substrate based colorimetric method

SMILES: O=C1O/C(=C(/C(=O)O)c2ccc(O)c(O)c2)C(O)=C1c1ccc(O)c(O)c1
- IC50: 10.4 µM
